logP data for 17 compounds are collected here from the OPERA property sets (Mansouri et al. 2018).

By logP is commonly meant a log measure of how a compound divides between an organic and an aqueous phase. A high value points to a more lipophilic compound. As to `c1ccc2c(c1)OCCOCCOCCOc1ccccc1OCCOCCOCCO2`, the lipophilicity (logP) stood at 2.11.

`c1ccc2c(c1)OCCOCCOc1ccccc1OCCOCCO2`: the log partition coefficient (logP) amounted to 2.2.

In turn, `COCCOCCOc1ccccc1OCCOCCOC` gave a logP of 0.76.

`c1ccc2c(c1)OCCOCCOCCOCCOCCOCCOCCOc1ccccc1OCCO2` registered a logP of 1.82.

Compound `c1ccc2c(c1)OCCOCCOCCOCCOCCO2` came in with a lipophilicity (logP) of 0.58.

`c1ccc2c(c1)OCCOCCOCCOCCOCCOCCO2` registered a lipophilicity (logP) of 0.57.

`c1ccc2c(c1)OCCOCCOCCOCCOCCOCCOCCOc1ccccc1OCCOCCOCCOCCOCCOCCOCCO2` showed a logP of 0.52.

`c1ccc2c(c1)OCCOCCOCCOCCOc1ccccc1OCCOCCOCCOCCO2` came in with a lipophilicity (logP) of 1.8.

As for `c1ccc2c(c1)OCCOCCOCCOCCO2`, the lipophilicity (logP) worked out at 0.91.

Consider `COCCOCCOc1cccc(OCCOCCOC)c1`, for which the logP was 0.86.

Compound `c1ccc2c(c1)OCCOCCOCCOCCOCCOCCOc1ccccc1OCCOCCOCCO2` had a logP of 1.45.

Regarding `c1ccc2c(c1)OCCOCCOCCOCCOCCOCCOCCOCCOCCO2`, the logP worked out at 0.03.

For the compound `c1ccc2c(c1)OCCOCCOCCOCCOCCOCCOCCO2`, the log partition coefficient (logP) was 0.45.

`COCCOCCOc1ccc(OCCOCCOC)cc1` returned a lipophilicity (logP) of 0.76.

The compound `COCCOCCOCCOc1ccccc1OCCOCCOCCOC` registered a lipophilicity (logP) of 0.38.

`c1ccc2c(c1)OCCOCCOCCOCCOCCOCCOCCOCCOCCOCCO2` displayed a logP of -0.09.

As to `c1ccc2c(c1)OCCOCCOCCOCCOCCOCCOc1ccccc1OCCO2`, the logP came out at 1.63.
